One test has as its target T1, SspH1 (C492) (Salmonella typhimurium, UniProt D0ZVG2).
T1 construct: Recombinant IpaH9.8 (21–545) and SspH1 (161–700) were incubated at 0.5 μM; His-tag (N, cleaved yes); made in house; host or cells: E. coli BL21
Briefly: IA-DTB competitive chemoproteomics in spiked HEK293T lysate. The test is classed as binding. The following applies: HEK293T lysate spiked with recombinant protein, four hours at RT. As for the experimental part: (§1) HEK293T lysate supplemented with recombinant SspH1 (161–700) and SspH2 (166–783) was treated with a dilution series […] of either compound 6 or 7 for four hours at RT. Following compound treatments, we used an iodoacetamide-desthiobiotin (IA-DTB) competitive chemoproteomics workflow to assess cysteine engagement.[52] Comparison of DMSO treated lysate with compound treated lysate enabled identification of peptides where IA-DTB labelling of cysteines was blocked due to fragment engagement (Fig. S5). […] Competition of the SspH2 C580 peptide occurred at lower concentrations compared to the SspH1 C492 peptide, which corroborated our previous kinetics experiments that both compounds label SspH2 faster than SspH1 (Fig. S4).
(§2) Fig. 5 Characterisation of protein interactions by compounds 6 and 7. (A) SspH1 and SspH2 catalytic cysteine labelling with compound 6 (100–3.125 μM, 4 hours) in HEK293T lysate spiked with recombinant SspH1 and SspH2. Data are presented as mean ± SEM, n = 4. The curves were fitted with GraphPad Prism 10 using four parameter nonlinear regression with baseline correction to DMSO-treated samples. (B) SspH1 and SspH2 catalytic cysteine labelling with compound 7 (100–3.125 μM, 4 hours) in HEK293T lysate spiked with recombinant SspH1 and SspH2. Data are presented as mean ± SEM, n = 4. The curves were fitted with GraphPad Prism 10 using four parameter nonlinear regression with baseline correction to DMSO-treated samples. (C) Volcano plot of IA-DTB competition in SspH1 expressing HEK293T cells treated with compound 6 (50 μM, 4 hours). (D) Volcano plot of IA-DTB competition in SspH2 expressing HEK293T cells treated with compound 6 (50 μM, 4 hours). Data is shown as compared to DMSO treated samples, with competed peptides in the upper left-hand quadrant. Competed catalytic cysteine-containing peptides of HECT E3s (yellow), UCH DUBs (blue) and OTU DUBs (purple) are indicated. All proteomics experiments were performed with technical quadruplicates.
(§3) A pellet of 50 × 10^6 HEK293T cells was resuspended in 5 mL lysis buffer (50 mM HEPES pH 8.0, 150 mM NaCl, 1% IGEPAL, 0.1% SDS, 0.5% Na-deoxycholate, supplemented with protease inhibitor cocktail (Sigma-Aldrich, P8340)). The lysate was sonicated and centrifuged (10 min, 17 000 × g) and the soluble fraction isolated. Protein concentrations were measured using a Rapid BCA Gold Protein Assay Kit (Thermo Scientific, A53226) and diluted to 0.75 mg mL^−1 with lysis buffer. The lysate was then spiked with 0.2 μM of each recombinant SspH1 (aa 161–700) and SspH2 (aa 166–783). For each condition, four wells were treated and processed separately, representing four technical replicates. 2 μL of 100× stocks of compounds 6 and 7 in DMSO (10–0.156 mM, and DMSO only control), and 200 μL lysate was added to a 96-well plate. […]

The target of another test is T2, SspH2 (C580) (Salmonella typhimurium, UniProt D0ZPH9).
T2 construct: Recombinant SspH1 (aa 161–700) and SspH2 (aa 166–783) were both characterised; His-tag (N, cleaved yes); made in house; host or cells: E. coli BL21
Described as above. To be noted: HEK293T lysate spiked with recombinant protein, four hours at RT. The test is classed as binding. The method, then: as §1, §2, §3

The results in this text go back to publication PMC12584752, “Covalent fragment screening to inhibit the E3 ligase activity of bacterial NEL enzymes SspH1 and SspH2” (RSC Chemical Biology, 2025).

T2 sequence (D0ZPH9 166-783): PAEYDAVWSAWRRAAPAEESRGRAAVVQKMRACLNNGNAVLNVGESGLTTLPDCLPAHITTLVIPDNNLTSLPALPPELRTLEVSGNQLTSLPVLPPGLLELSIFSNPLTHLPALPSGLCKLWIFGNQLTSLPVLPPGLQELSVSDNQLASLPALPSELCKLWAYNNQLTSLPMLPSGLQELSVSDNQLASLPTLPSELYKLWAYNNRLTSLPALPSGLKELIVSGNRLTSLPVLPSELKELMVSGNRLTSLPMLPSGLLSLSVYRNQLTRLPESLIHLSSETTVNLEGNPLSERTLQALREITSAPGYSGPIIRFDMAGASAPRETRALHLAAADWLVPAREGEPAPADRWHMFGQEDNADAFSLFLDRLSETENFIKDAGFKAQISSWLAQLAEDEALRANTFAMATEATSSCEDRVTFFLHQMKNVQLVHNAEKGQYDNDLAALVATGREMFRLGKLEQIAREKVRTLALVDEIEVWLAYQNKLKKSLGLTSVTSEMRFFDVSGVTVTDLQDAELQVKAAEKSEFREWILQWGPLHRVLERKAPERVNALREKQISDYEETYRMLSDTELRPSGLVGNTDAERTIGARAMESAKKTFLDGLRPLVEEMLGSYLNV
T1 sequence (D0ZVG2 161-700): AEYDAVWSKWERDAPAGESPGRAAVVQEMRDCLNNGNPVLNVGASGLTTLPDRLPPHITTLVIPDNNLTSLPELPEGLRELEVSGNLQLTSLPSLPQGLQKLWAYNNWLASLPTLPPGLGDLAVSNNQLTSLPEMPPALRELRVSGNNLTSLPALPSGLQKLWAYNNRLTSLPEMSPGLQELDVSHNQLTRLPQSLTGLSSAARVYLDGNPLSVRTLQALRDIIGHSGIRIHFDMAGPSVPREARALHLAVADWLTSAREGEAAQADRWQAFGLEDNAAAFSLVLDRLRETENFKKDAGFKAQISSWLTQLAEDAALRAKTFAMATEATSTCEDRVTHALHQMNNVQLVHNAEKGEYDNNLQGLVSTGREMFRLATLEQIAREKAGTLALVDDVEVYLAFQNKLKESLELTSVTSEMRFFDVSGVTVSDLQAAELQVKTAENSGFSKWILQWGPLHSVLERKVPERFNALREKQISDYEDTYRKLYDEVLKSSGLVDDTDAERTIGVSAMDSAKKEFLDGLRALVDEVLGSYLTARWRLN

Consider `Cc1cc(-c2nc3ccccc3n2C2CCN(C(=O)CCl)CC2)cc(C)c1O.Cl` [compound 6], for which the “competition of IA-DTB labelling of the C492 peptide for SspH1” value at SspH1 (C492) is recorded as “concentration-dependent competition”. Further, the “competition of IA-DTB labelling of the C580 peptide for SspH2” value on SspH2 (C580) was “concentration-dependent competition”.

As for `Cl.O=C(CCl)N1CCC(n2c(-c3ccc(C(F)(F)F)cc3)nc3ccccc32)CC1` [compound 7], the “competition of IA-DTB labelling of the C492 peptide for SspH1” value at SspH1 (C492) is on record as “concentration-dependent competition”. For the same compound, the “competition of IA-DTB labelling of the C580 peptide for SspH2” value at SspH2 (C580) is given as “concentration-dependent competition”.
